Measured values reported in US20230146455A1, “TREATMENT OF INFLAMMATORY DISEASES WITH PEPTIDES AND PHARMACEUTICAL COMPOSITIONS” (Yuyu Pharma, Inc., priority 2020, published 2023).
Where “and” joins values, the source holds several entries; their conditions need not be identical. Equal values may be shown once. Where a SMILES comes first, the peptide text is derived from it. [ ]: non-standard residue; d: D form. Hyp = O=C(O)[C@@H]1C[C@@H](O)CN1

Test system: IL-1 beta/IL-1F2
Assay: Example 8 main study Luminex, LPS hPBMCs: IL-1 beta/IL-1F2
Assay type: cell-based, human
Procedure: Human PBMCs were pretreated with YY-101, YDE-011, YDE-043 or reference compound; Xiidra® at various concentration (ranging from […] to 500 nM) for 2 h before stimulation. An equal volume of 0.5% DMSO was used as a vehicle control. Then, the cells were treated with LPS at 5 ug/ml, which was selected based on the pilot study. The supernatants from treated cells were harvested at 24 h and placed in a 96 well for Luminex cytokine & chemokine profiling using a Luminex 200 multiplex assay (Luminex; R&D system, USA).
The main study arm with triplicate wells per group in a 24-well plate: • 1. Blank • 2. PBMC: 0.5% DMSO • 3. PBMC+LPS (5 ug/ml) • 4. PBMC+YY-101 500 nM • 5. PBMC+YY-101 50 nM • 6. PBMC+YY-101 5 nM • 7. PBMC+YY-101 0.5 nM • 8. PBMC+LPS (5 ug/ml)+Xiidra® 500 nM • 9. PBMC+LPS (5 ug/ml)+Xiidra® 50 nM • 10. PBMC+LPS (5 ug/ml)+Xiidra® 5 nM • 11. PBMC+LPS (5 ug/ml)+Xiidra® 0.5 nM • 12. PBMC+LPS (5 ug/ml)+Xiidra® 0.05 nM • 13. PBMC+LPS (5 ug/ml)+Xiidra® 0.005 nM • 14. PBMC+LPS (5 ug/ml)+YY-101 500 nM • 15. PBMC+LPS (5 ug/ml)+YY-101 50 nM • 16. PBMC+LPS (5 ug/ml)+YY-101 5 nM • 17. PBMC+LPS (5 ug/ml)+YY-101 0.5 nM • 18. PBMC+LPS (5 ug/ml)+YY-101 0.05 nM • 19. PBMC+LPS (5 ug/ml)+YY-101 0.005 nM • 20. PBMC+LPS (5 ug/ml)+YDE-011 500 nM • 21. PBMC+LPS (5 ug/ml)+YDE-011 50 nM • 22. PBMC+LPS (5 ug/ml)+YDE-011 5 nM • 23. PBMC+LPS (5 ug/ml)+YDE-011 0.5 nM • 24. PBMC+LPS (5 ug/ml)+YDE-011 0.05 nM • 25. PBMC+LPS (5 ug/ml)+YDE-011 0.005 nM • 26. PBMC+LPS (5 ug/ml)+YDE-043 500 nM • 27. PBMC+LPS (5 ug/ml)+YDE-043 50 nM • 28. PBMC+LPS (5 ug/ml)+YDE-043 5 nM • 29. PBMC+LPS (5 ug/ml)+YDE-043 0.5 nM • 30. PBMC+LPS (5 ug/ml)+YDE-043 0.05 nM • 31. PBMC+LPS (5 ug/ml)+YDE-043 0.005 nM
Multiplex assay was used to measure 30 cytokines and chemokines. The 1:200 diluted cell supernatant and serial dilution of the standard were dispensed into a 96 well plate at 50 ul/well. Then, the pre-mixed cocktail of antibody-coated magnetic beads was dispensed at 50 ul/well and incubated at room temperature for 2 h in a horizontal orbital microplate shaker at 800±500 rpm. The beads were washed using a magnetic device to prevent loss. The biotin-antibody was dispensed in 50 ul of each well and incubated at room temperature for 1 h in a shaker at 800±500 rpm. After washing, streptavidin-PE was added at 50 ul/well and incubated at room temperature for 30 min in a shaker under the same conditions. Finally, after washing, wash buffer (100 ul/well) was added to the plate and incubated in a shaker for 2 min. The Luminex™ 200 setting were set according to the manufacturer's protocol. The data was calculated with a standard five-parameter logistic nonlinear regression analysis of the data (xPonent software 4.2, USA). Results were presented as concentration (ng/ml or pg/ml).

[1] = PBMC + LPS(5 ug/ml) + test article 0.005 nM, Mean
[2] = PBMC + LPS(5 ug/ml) + test article 0.005 nM, individual replicates
[3] = PBMC + LPS(5 ug/ml) + test article 0.05 nM, Mean
[4] = PBMC + LPS(5 ug/ml) + test article 0.05 nM, individual replicates
[5] = PBMC + LPS(5 ug/ml) + test article 0.5 nM, Mean
[6] = PBMC + LPS(5 ug/ml) + test article 0.5 nM, individual replicates
[7] = PBMC + LPS(5 ug/ml) + test article 5 nM, Mean
[8] = PBMC + LPS(5 ug/ml) + test article 5 nM, individual replicates
[9] = PBMC + LPS(5 ug/ml) + test article 50 nM, Mean
[10] = PBMC + LPS(5 ug/ml) + test article 50 nM, individual replicates
[11] = PBMC + LPS(5 ug/ml) + test article 500 nM, Mean
[12] = PBMC + LPS(5 ug/ml) + test article 500 nM, individual replicates
[13] = PBMC + test article 0.5 nM, no LPS, Mean
[14] = PBMC + test article 0.5 nM, no LPS, individual replicates (1st, 2nd)
[15] = PBMC + test article 5 nM, no LPS, Mean
[16] = PBMC + test article 5 nM, no LPS, individual replicates (1st, 2nd)
[17] = PBMC + test article 0.05 uM, no LPS, Mean
[18] = PBMC + test article 0.05 uM, no LPS, individual replicates (1st, 2nd)
[19] = PBMC + test article 50 nM, no LPS, Mean
[20] = PBMC + test article 50 nM, no LPS, individual replicates (1st, 2nd)
[21] = PBMC + test article 500 nM, no LPS, Mean
[22] = PBMC + test article 500 nM, no LPS, individual replicates (1st, 2nd)

## CC(C)C[C@H](NC(=O)CNC(=O)[C@H](CC(C)C)NC(=O)[C@H](CCC(N)=O)NC(=O)CNC(=O)[C@@H]1C[C@@H](O)CN1)C(=O)N[C@@H](C)C(=O)NCC(=O)N1CCC[C@H]1C(=O)N[C@@H](CCCCN)C(=O)O [YDE-011] (H-[Hyp]GQLGLAGPK-OH)
[1]
  IL-1 beta/IL-1F2 Concentration: 5171.7 pg/mL
  IL-1 beta/IL-1F2 MFI: 94.5
[2]
  IL-1 beta/IL-1F2 Concentration: 5350.1 pg/mL and 5023.0 pg/mL and 5141.9 pg/mL
  IL-1 beta/IL-1F2 MFI: 97.5 and 92.0 and 94.0
[3]
  IL-1 beta/IL-1F2 Concentration: 5836.1 pg/mL
  IL-1 beta/IL-1F2 MFI: 105.7
[4]
  IL-1 beta/IL-1F2 Concentration: 5796.4 pg/mL and 6094.1 pg/mL and 5617.8 pg/mL
  IL-1 beta/IL-1F2 MFI: 105.0 and 110.0 and 102.0
[5]
  IL-1 beta/IL-1F2 Concentration: 4864.5 pg/mL
  IL-1 beta/IL-1F2 MFI: 89.3
[6]
  IL-1 beta/IL-1F2 Concentration: 4844.7 pg/mL and 4963.6 pg/mL and 4785.3 pg/mL
  IL-1 beta/IL-1F2 MFI: 89.0 and 91.0 and 88.0
[7]
  IL-1 beta/IL-1F2 Concentration: 4350.3 pg/mL
  IL-1 beta/IL-1F2 MFI: 80.7
[8]
  IL-1 beta/IL-1F2 Concentration: 3539.2 pg/mL and 4250.8 pg/mL and 5260.9 pg/mL
  IL-1 beta/IL-1F2 MFI: 67.0 and 79.0 and 96.0
[9]
  IL-1 beta/IL-1F2 Concentration: 4786.7 pg/mL
  IL-1 beta/IL-1F2 MFI: 88.0
[10]
  IL-1 beta/IL-1F2 Concentration: 5558.3 pg/mL and 5617.8 pg/mL and 3183.9 pg/mL
  IL-1 beta/IL-1F2 MFI: 101.0 and 102.0 and 61.0
[11]
  IL-1 beta/IL-1F2 Concentration: 4262.6 pg/mL
  IL-1 beta/IL-1F2 MFI: 79.2
[12]
  IL-1 beta/IL-1F2 Concentration: 5796.4 pg/mL and 2681.1 pg/mL and 4310.2 pg/mL
  IL-1 beta/IL-1F2 MFI: 105.0 and 52.5 and 80.0

## CC(C)C[C@H](NC(=O)CNC(=O)[C@H](CC(=O)O)NC(=O)[C@H](CCC(N)=O)NC(=O)CNC(=O)[C@@H]1C[C@@H](O)CN1)C(=O)N[C@@H](C)C(=O)NCC(=O)N1CCC[C@H]1C(=O)N[C@@H](CCCCN)C(=O)O [YY-101] (H-[Hyp]GQDGLAGPK-OH; N-terminus and C-terminus assumed)
[1]
  IL-1 beta/IL-1F2 Concentration: 5806.3 pg/mL
  IL-1 beta/IL-1F2 MFI: 105.2
[2]
  IL-1 beta/IL-1F2 Concentration: 5975.0 pg/mL and 6004.7 pg/mL and 5439.3 pg/mL
  IL-1 beta/IL-1F2 MFI: 108.0 and 108.5 and 99.0
[3]
  IL-1 beta/IL-1F2 Concentration: 6004.8 pg/mL
  IL-1 beta/IL-1F2 MFI: 108.5
[4]
  IL-1 beta/IL-1F2 Concentration: 5736.8 pg/mL and 6511.1 pg/mL and 5766.6 pg/mL
  IL-1 beta/IL-1F2 MFI: 104.0 and 117.0 and 104.5
[5]
  IL-1 beta/IL-1F2 Concentration: 6044.5 pg/mL
  IL-1 beta/IL-1F2 MFI: 109.2
[6]
  IL-1 beta/IL-1F2 Concentration: 5736.8 pg/mL and 5975.0 pg/mL and 6421.7 pg/mL
  IL-1 beta/IL-1F2 MFI: 104.0 and 108.0 and 115.5
[7]
  IL-1 beta/IL-1F2 Concentration: 5875.9 pg/mL
  IL-1 beta/IL-1F2 MFI: 106.3
[8]
  IL-1 beta/IL-1F2 Concentration: 5498.8 pg/mL and 5558.3 pg/mL and 6570.7 pg/mL
  IL-1 beta/IL-1F2 MFI: 100.0 and 101.0 and 118.0
[9]
  IL-1 beta/IL-1F2 Concentration: 5608.2 pg/mL
  IL-1 beta/IL-1F2 MFI: 101.8
[10]
  IL-1 beta/IL-1F2 Concentration: 5201.4 pg/ml (2×) and 6421.7 pg/ml
  IL-1 beta/IL-1F2 MFI: 95.0 (2×) and 115.5
[11]
  IL-1 beta/IL-1F2 Concentration: 5578.2 pg/mL
  IL-1 beta/IL-1F2 MFI: 101.3
[12]
  IL-1 beta/IL-1F2 Concentration: 5260.9 pg/mL and 5915.4 pg/mL and 5558.3 pg/mL
  IL-1 beta/IL-1F2 MFI: 96.0 and 107.0 and 101.0
[13]
  IL-1 beta/IL-1F2 Concentration: 391.1 pg/mL
  IL-1 beta/IL-1F2 MFI: 13.5
[14]
  IL-1 beta/IL-1F2 Concentration: 362.0 pg/mL and 420.1 pg/mL
  IL-1 beta/IL-1F2 MFI: 13.0 and 14.0
[15]
  IL-1 beta/IL-1F2 Concentration: 391.1 pg/mL
  IL-1 beta/IL-1F2 MFI: 13.5
[16]
  IL-1 beta/IL-1F2 Concentration: 362.0 pg/mL and 420.1 pg/mL
  IL-1 beta/IL-1F2 MFI: 13.0 and 14.0
[17]
  IL-1 beta/IL-1F2 Concentration: 420.1 pg/mL
  IL-1 beta/IL-1F2 MFI: 14.0
[18]
  IL-1 beta/IL-1F2 Concentration: 420.1 pg/mL
  IL-1 beta/IL-1F2 MFI: 14.0
[19]
  IL-1 beta/IL-1F2 Concentration: 362.0 pg/mL
  IL-1 beta/IL-1F2 MFI: 13.0
[20]
  IL-1 beta/IL-1F2 Concentration: 362.0 pg/mL
  IL-1 beta/IL-1F2 MFI: 13.0
[21]
  IL-1 beta/IL-1F2 Concentration: 420.1 pg/mL
  IL-1 beta/IL-1F2 MFI: 14.0
[22]
  IL-1 beta/IL-1F2 Concentration: 420.1 pg/mL
  IL-1 beta/IL-1F2 MFI: 14.0
